Measurements taken from the supplement of paper PMC10307832.

Legend:
Assay in all cases: relative viability (nuclei count vs DMSO), 5 days (fraction); higher = more cells survive
Ricolinostat + Olaparib = compound: O=C(CCCCCCNC(=O)c1cnc(N(c2ccccc2)c2ccccc2)nc1)NO [Ricolinostat] + O=C(c1cc(Cc2n[nH]c(=O)c3ccccc23)ccc1F)N1CCN(C(=O)C2CC2)CC1 [Olaparib] (partner 8 µM)
In short: (§1)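 Lung cancer cell lines were pin-tool dosed in 1536-well plates on the day after seeding, with either a lone drug or a fixed anchor-drug dose plus five library-drug doses (not always all listed) in √10 steps. Nuclei were counted on 4× images after 5 days. Relative viability is the ratio of treated-well to vehicle-well nuclei counts, with each value a median of duplicate plates.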

[1] = compound: O=C(CCCCCCNC(=O)c1cnc(N(c2ccccc2)c2ccccc2)nc1)NO [Ricolinostat] + N=C(N)NC(=N)NCCc1ccccc1 [Phenformin] (partner 250 µM)
In short: as §1

[2] = compound: C1=CC=C(C(=C1)C2=CC=C(C=C2)C3=CSC4=C3C(=C(C(=O)N4)C#N)O)O + CC(=O)Nc1cccc(-n2c(=O)n(C3CC3)c(=O)c3c(Nc4ccc(I)cc4F)n(C)c(=O)c(C)c32)c1 [Trametinib] (partner 0.02 µM)
In short: as §1

[3] = compound: O=C(CCCCCCNC(=O)c1cnc(N(c2ccccc2)c2ccccc2)nc1)NO [Ricolinostat] + CC1(C)CCC(c2ccc(Cl)cc2)=C(CN2CCN(c3ccc(C(=O)NS(=O)(=O)c4ccc(N[C@H](CCN5CCOCC5)CSc5ccccc5)c(S(=O)(=O)C(F)(F)F)c4)cc3)CC2)C1 [Navitoclax] (partner 0.5 µM)
In short: as §1

Cell Line | relative viability (Ricolinostat + Olaparib; first compound 0.08 µM) | relative viability (Ricolinostat + Olaparib; first compound 0.253 µM) | relative viability (Ricolinostat + Olaparib; first compound 0.8 µM) | relative viability (Ricolinostat + Olaparib; first compound 2.53 µM) | relative viability ([1]; first compound 0.08 µM) | relative viability ([1]; first compound 0.253 µM) | relative viability ([1]; first compound 0.8 µM) | relative viability ([1]; first compound 2.53 µM) | relative viability ([2]; first compound 0.08 µM) | relative viability ([2]; first compound 0.253 µM) | relative viability ([2]; first compound 0.8 µM) | relative viability ([2]; first compound 2.53 µM) | relative viability ([2]; first compound 8 µM) | relative viability ([3]; first compound 0.08 µM) | relative viability ([3]; first compound 0.253 µM) | relative viability ([3]; first compound 0.8 µM) | relative viability ([3]; first compound 2.53 µM)
NCI-H2228 | 0.647 | 0.548 | 0.476 | 0.45 | 0.255 | 0.341 | 0.355 | 0.342 | 0.342 | 0.459 | 0.544 | 0.458 | 0.465 | 0.951 | 0.987 | 0.8 | 0.693
LXF-289 | 1.04 | 1.12 | 1.04 | 1.01 | 0.495 | 0.463 | 0.538 | 0.529 | 0.682 | 0.695 | 0.656 | 0.722 | 0.755 | 0.904 | 0.927 | 0.914 | 0.878
NCI-H2085 |  | 0.734 | 0.764 | 0.791 |  | 0.705 | 0.66 | 0.58 | 0.55 | 0.772 | 0.615 | 0.484 | 0.598 |  | 1.14 | 1 | 0.947
NCI-H2342 | 0.444 | 0.535 | 0.421 | 0.46 | 0.475 | 0.578 | 0.614 | 0.713 | 0.754 | 0.88 | 0.794 | 0.681 | 0.68 |  |  |  | 
EMC-BAC-2 | 0.52 | 0.442 | 0.393 | 0.347 | 0.475 | 0.481 | 0.476 | 0.396 | 0.942 |  | 0.889 | 0.892 | 0.913 | 1.04 | 1.09 | 1.2 | 1.2
IA-LM | 0.728 | 0.92 | 0.737 | 0.586 |  |  |  |  |  |  |  |  |  | 0.802 | 0.626 | 0.747 | 0.603
A549 |  | 0.252 | 0.286 | 0.139 |  | 0.114 | 0.132 | 0.155 |  |  |  |  |  | 1.07 | 1.18 | 1.1 | 1.21
NCI-H3122 | 0.571 | 0.618 | 0.54 | 0.55 |  | 0.378 | 0.369 | 0.318 | 0.289 | 0.233 | 0.223 | 0.253 | 0.295 | 0.918 | 0.984 | 1.07 | 1.14
LC-2-ad | 0.699 | 0.639 | 0.665 | 0.285 | 0.47 | 0.621 | 0.5 | 0.44 | 0.899 | 0.942 | 0.909 | 0.98 | 0.807 | 0.535 | 0.485 | 0.506 | 0.334
NCI-H1734 | 0.61 | 0.642 | 0.601 | 0.324 | 0.35 | 0.452 | 0.351 | 0.466 | 0.57 | 0.666 | 0.728 | 0.669 | 0.559 | 0.645 | 0.826 | 0.924 | 0.78
NCI-H1975 | 0.85 | 0.768 | 0.713 | 0.643 | 0.377 | 0.413 | 0.396 | 0.401 | 0.348 | 0.412 | 0.337 | 0.311 | 0.345 | 1.07 | 1.1 |  | 0.877
